Reference: US6794371B1, “Aminoalkylenephosphonates for treatment of bone disorders” (The Dow Chemical Company, priority 1999, dated 2004)

System: ovariectomized rats (bone mineral density)
Experiment: Ovariectomized rat osteoporosis model, bone mineral density by dual energy X-ray absorptiometry (DEXA) (Example 2)
Details: 5 mg/kg
Description: Eleven week old Female Sprague-Dawley laboratory rats (75) were fed a commercial rat diet and were allowed to drink water ad libitum. They were housed in pairs in an air-conditioned environment, and were allowed to enjoy 14 hours of illumination per day. Ten rats were sham-operated and were used as “non-osteopenic” control rats. All of the other rats were ovariectomized at 12 weeks of age. All surgeries were done under injectable anesthesia. […] The remaining rats were given various phosphonate compounds in groups of ten.
The rats were given doses three times during the first week and once a week thereafter.
All other compounds were dosed at 5 mg/kg. In this study, bone mineral density was determined by dual energy X-ray absorptiometry (DEXA).

SMILES	bone mineral density (BMD) over the study period, relative to OVX control group
O=P(O)(O)CN(Cc1ccccn1)CP(=O)(O)O [AMPDMP, N,N-bis(methylenephosphonic acid)-2-(aminomethyl)pyridine]	look even better
O=P(O)(O)CN1Cc2cccc(n2)CN(CP(=O)(O)O)Cc2cccc(n2)C1 [BP2MP, N,N′-bis(methylenephosphonic acid)-2,11-diaza[3.3](2,6)pyridinophane]	look even better
